One data set is described as follows: LD 50 orally. To be noted: in vivo; oral; 95% confidence limits in parentheses. The protocol: (§1) In every case, the compounds under test were administered orally. The results obtained are given in the table below which also gives the LD 50's (and their 95% confidence limits) of the compounds studied determined intravenously and orally.
The nature of a further data set: LD 50 intravenously. The following applies: in vivo; intravenous; 95% confidence limits in parentheses. The procedure: as §1
Data set [1] in a line: electric "battle test" (Tedeschi & al). To be noted: oral; read-out: Electric Battle Test ED 50. Format: in vivo. The procedure: 3. the electric "battle test" (Tedeschi & al, J. Pharmacol., 1959, 125, pages […]); and
as §1

The test system of another data set is rat. The experiment in a line: anorexigenic effects in the rat trained to satisfy its alimentary needs in a period of 5 hours each 24 hours. The format is in vivo. To be noted: oral, read-out: Anorexia ED 50. The protocol:
1. a study of the anorexigenic effects in the rat trained to satisfy its alimentary needs in a period of 5 hours each 24 hours;
as §1

For data set [2] the following is noted: known properties of comparison compounds; cited from earlier work.
Another data set concerns mice. The experiment in a line: motor activity in mice in the hour following administration. The format is in vivo. To be noted: 5 mg/kg, oral. The procedure:
2. the motor activity in mice in the hour following administration of the compound under test;
as §1

Data set [3] can be described thus: overall comparison of therapeutic index, activity and toxicity. Format: in vivo. To be noted: compared with compounds II and III. The protocol:
The compounds of formula IA and their salts have interesting pharmacological properties which make them of therapeutic interest.
as §1

Structures are written as SMILES. Structures can show the parent of a compound that is named as a salt.

By LD50 is commonly meant the dose at which mortality reaches 50%.

As for `FC(F)(F)c1cccc(N2CCNCC2)c1` [Compound II, N-(m-trifluoromethylphenyl)-piperazine, reference compound], the 50% lethal dose (LD50) came out at 200 mg/kg in “LD 50 orally” and 80 mg/kg in “LD 50 intravenously”. In addition, the ED50 is 15 mg/kg in data set [1] and 25 mg/kg with rat. The known pharmacological properties result in data set [2] is “known to possess anorexigenic and anxiolytic properties”.
As to `COC(=O)CCN1CCN(c2cccc(SC(F)(F)F)c2)CC1` [Example 5, N-(β-methoxycarbonyl-ethyl)-N'-(m-trifluoromethylthiophenyl)-piperazine hydrochloride], the solubility in water entry in the data set “solubility” is “soluble in water”.
`Cl.N#CCCN1CCN(c2cccc(SC(F)(F)F)c2)CC1` [IA, N-(β-cyano-ethyl)-N'-(m-trifluoromethylthiophenyl)-piperazine hydrochloride]: the LD50 in the data set “LD 50 orally” was 335 mg/kg; in “LD 50 intravenously” it was 180 mg/kg. For the same compound, the ED50 is 8 mg/kg in data set [1] and 11 mg/kg in the data set with rat. Moreover, the “Motor Activity” value in the data set on mice turned out to be 0%. Further, the solubility in water entry in the data set “solubility” was “soluble in water”. Further, the “activity, overall” value in data set [3] was “higher activity”. Moreover, in data set [3], the therapeutic index entry was “better therapeutic index than compounds II and III”. Besides, the toxicity entry in data set [3] is “lower toxicity”.
Consider `FC(F)(F)Sc1cccc(N2CCNCC2)c1` [III, N-(m-trifluoromethylthiophenyl)-piperazine], for which the median lethal dose (LD50) in the data set “LD 50 orally” is 210 mg/kg; in “LD 50 intravenously”, 90 mg/kg. Besides, the ED50 (in data set [1]; in the data set with rat) was 15 mg/kg each time. Further, the “Motor Activity” value with mice amounted to 0%. For the same compound, the “solubility in organic solvents” value in “solubility” (most usual organic solvents) is “soluble in water and in most usual organic solvents”. In “solubility”, the solubility in water result is reported as “soluble in water”. Moreover, in data set [2], the known pharmacological properties entry is on record as “known to possess anorexigenic properties”.
